Data taken from patent US8551976B2, “Prochelators for inhibiting metal-promoted oxidative stress” (Duke University, priority 2011, dated 2013).

Test: Hydrogen Peroxide Oxidation (LC-MS analysis of prochelator conversion)
Type: physicochemical
Conditions: 2 mM B-HAPI in water/DMSO, addition of 50 μl concentrated (30%) H2O2, room temperature, 1 h, data not shown
Experimental: Hydrogen Peroxide Oxidation. A 40 mM stock solution of B-HAPI in DMSO was prepared. The reaction mixture (2 mM B-HAPI) was prepared by mixing […] of the B-HAPI stock solution with 450 μl of water and 450 μl of DMSO. The reaction was initiated by addition of 50 μl of concentrated (30%) H2O2 solution. The reaction mixture was incubated at room temperature for 1 h and analyzed by LC-MS.

C/C(=N\NC(=O)c1ccncc1)c1ccccc1OCc1ccc(B2OC(C)(C)C(C)(C)O2)cc1 [B-HAPI, N′-(1-(2-(4-(4,4,5,5-tetramethyl-1,3,2-dioxaborolan-2-yl)benzyloxy)phenyl)ethylidene)isonitotinohdrazide]
Hydrogen peroxide oxidation: products formed (LC-MS): Formation of the chelator (HAPI) and the intermediate of the self-immolative deprotection reaction was observed
